Source: patent publication US9193722B2, “Tri-cyclic pyrazolopyridine kinase inhibitors” (Vertex Pharmaceuticals Incorporated, priority 2008, dated 2015)

Legend:
Format in all cases: biochemical
[1] = target: PKC theta kinase (Homo sapiens, UniProt Q04759); assay: PKC theta kinase inhibition, coupled-enzyme (NADH absorbance) assay, Ki; conditions: 240 μM ATP, 18 nM PKC theta kinase, 30° C.
Method in brief: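 Enzyme and compound equilibrated 10 min at 30 °C before reaction in HEPES pH 7.5 buffer with MgCl2, NaCl, EDTA and Brij. Activity tracked as NADH loss at 340 nm through a coupled system. Initial-rate data fitted by non-linear regression to give Ki.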

[2] = target: PKC delta kinase (Homo sapiens, UniProt Q05655); assay: PKC delta kinase inhibition, coupled-enzyme (NADH absorbance) assay, Ki; conditions: 150 μM ATP, 46 nM PKC delta kinase, 30° C.; read-out: Ki PKC delta
PKC delta kinase, sequence (Q05655 whole entry): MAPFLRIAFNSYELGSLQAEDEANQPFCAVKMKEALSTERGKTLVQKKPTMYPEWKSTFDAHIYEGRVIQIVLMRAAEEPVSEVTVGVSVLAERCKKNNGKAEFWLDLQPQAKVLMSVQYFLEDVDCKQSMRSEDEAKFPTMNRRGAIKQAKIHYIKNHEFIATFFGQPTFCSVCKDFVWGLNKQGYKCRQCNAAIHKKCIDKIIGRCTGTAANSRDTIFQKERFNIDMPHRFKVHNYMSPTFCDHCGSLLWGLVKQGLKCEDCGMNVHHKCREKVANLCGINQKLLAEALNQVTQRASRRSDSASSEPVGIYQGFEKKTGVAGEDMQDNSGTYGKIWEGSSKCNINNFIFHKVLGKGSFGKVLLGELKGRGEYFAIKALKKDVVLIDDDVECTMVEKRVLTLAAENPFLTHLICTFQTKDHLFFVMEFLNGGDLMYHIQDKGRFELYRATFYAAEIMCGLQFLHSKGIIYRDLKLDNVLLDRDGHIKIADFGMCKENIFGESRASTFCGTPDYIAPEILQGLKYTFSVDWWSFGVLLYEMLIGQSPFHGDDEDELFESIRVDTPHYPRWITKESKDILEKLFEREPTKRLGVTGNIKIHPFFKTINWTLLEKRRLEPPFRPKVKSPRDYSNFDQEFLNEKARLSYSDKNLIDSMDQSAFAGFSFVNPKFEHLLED
Method in brief: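 Enzyme and compound pre-equilibrated 10 min at 30° C before adding ATP to 150 μM final. Buffer: HEPES pH 7.5 (100 mM), 10 mM MgCl2, 25 mM NaCl, 0.1 mM EDTA, 0.01% Brij.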

[3] = target: PKC alpha kinase (Homo sapiens, UniProt P17252); assay: PKC alpha kinase inhibition, coupled-enzyme (NADH absorbance) assay, Ki; conditions: 130 μM ATP, 4.5 nM PKC alpha kinase, 30° C.
Method in brief: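 Ki derived by non-linear regression of initial rates from a coupled assay tracking NADH absorbance at 340 nm over 15 min at 30 °C. ATP was 130 μM final after a 10 min compound–enzyme preincubation in HEPES pH 7.5 buffer with MgCl2, CaCl2, NaCl, EDTA and Brij.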

PKC theta kinase, sequence (Q04759 whole entry): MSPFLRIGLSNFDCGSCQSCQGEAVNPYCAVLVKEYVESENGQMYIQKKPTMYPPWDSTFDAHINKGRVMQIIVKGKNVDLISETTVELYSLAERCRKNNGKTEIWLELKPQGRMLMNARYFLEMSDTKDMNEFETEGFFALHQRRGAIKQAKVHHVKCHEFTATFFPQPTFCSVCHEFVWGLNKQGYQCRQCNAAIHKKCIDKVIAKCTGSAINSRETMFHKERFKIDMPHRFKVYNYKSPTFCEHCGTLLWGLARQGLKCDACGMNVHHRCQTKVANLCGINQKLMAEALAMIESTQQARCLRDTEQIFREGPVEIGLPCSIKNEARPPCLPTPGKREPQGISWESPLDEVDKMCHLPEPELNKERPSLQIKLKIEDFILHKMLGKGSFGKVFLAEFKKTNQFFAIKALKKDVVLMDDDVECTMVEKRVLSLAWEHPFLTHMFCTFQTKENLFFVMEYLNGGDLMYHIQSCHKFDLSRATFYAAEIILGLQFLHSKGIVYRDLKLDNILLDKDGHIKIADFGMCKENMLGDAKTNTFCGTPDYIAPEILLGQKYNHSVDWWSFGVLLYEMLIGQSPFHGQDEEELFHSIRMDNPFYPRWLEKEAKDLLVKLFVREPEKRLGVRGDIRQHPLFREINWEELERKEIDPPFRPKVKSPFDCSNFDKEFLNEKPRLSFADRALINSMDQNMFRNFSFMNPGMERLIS

| SMILES | Ki [1] [nM] | Ki [2] [nM] | Ki [3] [nM] |
| --- | --- | --- | --- |
| C[C@@H]1CN(c2ccc(C(F)(F)F)c(-c3n[nH]c4ncccc34)n2)CCN1 [Compound 117] | < 500 | > 1250 | > 1250 |
| CC(F)(F)CC1CN(c2ccc(C(F)(F)F)c(-c3n[nH]c4ncccc34)n2)CCN1 (stereo not drawn) [Compound 119] | < 500 | > 1250 | > 1250 |
| FC(F)(F)c1ccc(N2CC3CCC(C2)N3)nc1-c1n[nH]c2ncccc12 [Compound 120] | < 500 | < 2800 | > 1250 |
| FC(F)(F)c1ccc(N2CCN[C@@H](Cc3ccccc3)C2)nc1-c1n[nH]c2ncccc12 [Compound 121] | < 500 | > 1250 | > 1250 |
| Cc1ccccc1C1CN(c2ccc(C(F)(F)F)c(-c3n[nH]c4ncccc34)n2)CCN1 (stereo not drawn) [Compound 124] | < 500 | > 1250 | > 1250 |
| NCC1CCN(c2ccc(C(F)(F)F)c(-c3n[nH]c4ncccc34)n2)CC1 [Compound 127] | > 700 | > 1250 | > 1250 |
| NCC1CCCN(c2ccc(C(F)(F)F)c(-c3n[nH]c4ncccc34)n2)C1 (stereo not drawn) [Compound 128] | > 700 | > 1250 | > 1250 |
| FC(F)(F)c1ccc(N2CCN[C@@H](c3ccccc3)C2)nc1-c1n[nH]c2ncccc12 [Compound 129] | < 50 | < 2800 | < 2800 |
| Cc1ccc(C2CN(c3ccc(C(F)(F)F)c(-c4n[nH]c5ncccc45)n3)CCN2)cc1 (stereo not drawn) [Compound 133] | < 500 | > 1250 | > 1250 |
| Cc1cccc(C2CN(c3ccc(C(F)(F)F)c(-c4n[nH]c5ncccc45)n3)CCN2)c1 (stereo not drawn) [Compound 134] | < 50 | < 2800 | < 2800 |
| CC(C)(C)C[C@H]1CN(c2ccc(C(F)(F)F)c(-c3n[nH]c4ncccc34)n2)CCN1 [Compound 140] | < 50 | > 1250 | > 1250 |

Second part, the molecule after the results:

| Ki [1] [nM] | Ki [2] [nM] | Ki [3] [nM] | SMILES |
| --- | --- | --- | --- |
| < 50 | < 500 | < 2800 | CC(C)C[C@H]1CN(c2cccc(-c3n[nH]c4ncccc34)n2)CC[C@H]1N [Compound 118] |
| > 700 | > 1250 | > 1250 | NC1CCCN(c2ccc(C(F)(F)F)c(-c3n[nH]c4ncccc34)n2)C1 (stereo not drawn) [Compound 122] |
| < 50 | < 2800 | > 1250 | CCCC1CN(c2ccc(Cl)c(-c3n[nH]c4ncccc34)n2)CCN1 (stereo not drawn) [Compound 123] |
| < 2800 | > 1250 | > 1250 | NC1CCN(c2ccc(C(F)(F)F)c(-c3n[nH]c4ncccc34)n2)C1 (stereo not drawn) [Compound 125] |
| < 500 | > 1250 | > 1250 | NC1CCN(c2ccc(C(F)(F)F)c(-c3n[nH]c4ncccc34)n2)CC1 [Compound 126] |
| < 50 | < 500 | < 2800 | CC(C)C[C@H]1CN(c2cccc(-c3n[nH]c4ncccc34)n2)CC[C@@H]1N [Compound 130] |
| < 50 | < 2800 | < 2800 | CC(C)C[C@H]1CN(c2nc(-c3n[nH]c4ncccc34)ccc2F)CCN1 [Compound 131] |
| < 50 | < 500 | < 2800 | CC(C)CC1(C)CN(c2nc(-c3n[nH]c4ncccc34)ccc2F)CCN1 (stereo not drawn) [Compound 132] |
| < 50 | < 500 | > 1250 | CC(C)(O)[C@H]1CN(c2cccc(-c3n[nH]c4ncccc34)n2)CCN1 [Compound 136] |
| < 50 | < 500 | < 2800 | CC(C)C[C@@H]1CN(c2ccc(C(F)(F)F)c(-c3n[nH]c4ncccc34)n2)CC[C@@H]1N [Compound 138] |
| < 50 | < 50 | < 2800 | CC(C)(C)C[C@H]1CN(c2cccc(-c3n[nH]c4ncccc34)n2)CCN1 [Compound 139] |
| < 50 | < 500 | < 2800 | CC(C)(C)C[C@H]1CN(c2ccc(Cl)c(-c3n[nH]c4ncccc34)n2)CCN1 [Compound 141] |
